Measured values taken from EPA's ToxValDB 9.5.
≈ marks a conversion by molar mass, not a printed value. Where “and” joins values, the source holds several entries; their conditions need not be identical. Equal values may be shown once. Each block holds one molecule with its values, some of them ahead of it.

Experiments:
[1] = tested on: Monkey; settings: chronic; oral; F; Cyanomolgus; Altered serum hormones & menstrual cyclicity
[2] = tested on: Oryctolagus sp.; settings: uterotrophic; injection; subcutaneous; Active
[3] = tested on: Rattus norvegicus; settings: uterotrophic, Active
[4] = tested on: Mus musculus; settings: uterotrophic; duration: 3 days; injection; subcutaneous; Active
[5] = tested on: Homo sapiens; settings: duration: 10 days, oral, F, Withdrawal bleeding
[6] = tested on: Bacteria; settings: In vitro / microbiological growth inhibition; Growth inhibition
[7] = tested on: Guinea Pig, Mouse, Rat; settings: subchronic; inhalation; intermittent; Spleen: Pathology
[8] = tested on: Rattus norvegicus; settings: chronic; duration: 104 weeks; oral; diet; M/F; Crl:CD1; Immune, Hematologic
[9] = tested on: Rattus norvegicus; settings: inhalation
[10] = tested on: Mus musculus; settings: chronic; duration: 26 weeks; inhalation; M/F; methemoglobin increase, spleen toxicity
[11] = tested on: Cavia porcellus; settings: chronic; duration: 26 weeks; inhalation; M/F; Guinea Pig; methemoglobin increase, spleen toxicity
[12] = tested on: Rattus norvegicus
[13] = tested on: Mammals; assay: LD100; higher = less toxic; settings: acute; Oral
[14] = tested on: Rattus norvegicus; assay: LD100; higher = less toxic; settings: acute
[15] = tested on: Cavia porcellus; assay: LD100; higher = less toxic; settings: acute; oral; Guinea Pig
[16] = tested on: Mammals; settings: acute; Inhalation
[17] = tested on: Mus musculus; settings: acute; oral
[18] = tested on: Cavia porcellus; settings: acute; oral; Guinea Pig
[19] = tested on: Rattus norvegicus; settings: subchronic; duration: 63 days; oral; gavage; M; Sprague-Dawley; Clinical Observation: Piloerection SalivationMatted fur + Body Weight Changes: decrease
[20] = tested on: Rattus norvegicus; assay: LC0; higher = less toxic; settings: acute; Inhalation; Wistar
[21] = tested on: Oryctolagus sp.; assay: LD0; higher = less toxic; settings: acute; dermal; occlusive; New Zealand
[22] = tested on: Mus musculus; settings: chronic; duration: 2 years; oral; diet; M/F; Tif MAG; Uterine pathology
[23] = short-term, duration: 4 weeks, inhalation, M, Sprague-Dawley
[24] = short-term, duration: 4 weeks, inhalation, Sprague-Dawley

SMILES: C=C1C[C@H]2[C@@H]3C=C(C)C4=CC(=O)CC[C@]4(C)[C@H]3CC[C@]2(C)[C@@]1(OC(C)=O)C(C)=O [Melengestrol acetate]
LOEL [1]: 0.005 mg/kg-day

LEL [2]: 1 mg/day
LEL ([3]; duration: 2 days, oral): 0.5 mg/kg-day
LEL ([3]; duration: 4 days, injection, intraperitoneal): 50 mg/kg-day
LEL ([3]; duration: 14 days, oral): 10 mg
LEL [4]: 0.087 mg
LEL (gamma) [4]: 30
SMILES: CC(=O)[C@H]1CC[C@H]2[C@@H]3CCC4=CC(=O)CC[C@]4(C)[C@H]3CC[C@]12C [Progesterone]
LOEL ([5]; Clinical): 3.3 mg/kg-day
LOEL ([5]; clinical): 3.3 mg/kg-day

SMILES: CC1(C)S[C@@H]2[C@H](NC(=O)[C@H](N)c3ccc(O)cc3)C(=O)N2[C@H]1C(=O)O [Amoxicillin]
NOAEC [6]: 0.1 µg/mL

SMILES: Nc1ccccc1 [Aniline]
NOAEL [7]: 19 mg/m3
LOAEL [8]: 7 mg/kg-day
NOAEL ([9]; chronic, duration: 26 weeks, M/F, methemoglobin increase, spleen toxicity): 19 mg/m3
LOAEL ([9]; short-term, M, Mild spleen toxicity 2-Week): 64.7 mg/m3
NOAEL [10]: 19 mg/m3
NOAEL [11]: 19 mg/m3
NOAEL ([12]; short-term, duration: 2 weeks, inhalation): 38.1 mg/m3

SMILES: C1COCCN1 [Morpholine]
LD100 [13]: 1220 mg/kg
LD100 ([14]; injection, Intraperitoneal): 400 mg/kg
LD100 ([14]; oral): 100 mg/kg
LD100 [15]: 100 mg/kg
LC50 [16]: 12 µg/mL (≈ 138 µM)
LD50 ([12]; acute, inhalation): ≥ 7.8 mg/L and ≤ 8.2 mg/L
LD50 [17]: 525 mg/kg
LD50 [18]: 900 mg/kg

SMILES: Nc1ccccc1[N+](=O)[O-] [2-Nitrobenzenamine]
NOAEL [19]: 50 mg/kg-day
LC0 [20]: > 2530 mg/m3
NOAEL ([12]; developmental, duration: 6 days, oral, gavage, Sprague-Dawley): 600 mg/kg-day
NOAEL ([12]; reproduction developmental, duration: 6 days, oral, gavage, F, Sprague-Dawley): 100 mg/kg-day
LOAEL [12, 23]: 93 mg/m3
NOAEL [12, 23]: 9.8 mg/m3
LOAEL [12, 24]: 73 mg/m3
NOAEL [12, 24]: 30 mg/m3
NOAEL ([12]; short-term, duration: 14 days, oral, gavage, Sprague-Dawley): ≥ 100 mg/kg-day
LD0 [21]: > 7940 mg/kg

SMILES: O=C(NC(=O)c1c(F)cccc1F)Nc1ccc(Cl)c(Oc2ncc(C(F)(F)F)cc2Cl)c1 [Fluazuron]
NOEL [22]: 4.3 mg/kg-day
